Test results: publication PMC6314830 (Science Advances, 2019)

Tested on: mouse skin
Assay: Topical application to uninfected mouse skin
Format: in vivo
Conditions: repeated daily topical treatments of the skin

CC[C@H](C)[C@H](N)C(=O)N[C@@H](CC(N)=O)C(=O)N[C@@H](CC(C)C)C(=O)N[C@@H](CCCCN)C(=O)N[C@@H](C)C(=O)N[C@@H](CC(C)C)C(=O)N[C@@H](C)C(=O)N[C@@H](C)C(=O)N[C@@H](CC(C)C)C(=O)N[C@@H](C)C(=O)N[C@@H](CCCCN)C(=O)N[C@@H](CCCCN)C(=O)N[C@H](C(=O)N[C@@H](CC(C)C)C(=O)O)[C@@H](C)CC [Mastoparan]
Local or systemic adverse effects: did not observe any local or systemic adverse effects
